Data: article PMC3440348, “Identification of Novel Human Dipeptidyl Peptidase-IV Inhibitors of Natural Origin (Part I): Virtual Screening and Activity Assays” (PLoS ONE, 2012)

Biological target: T1, DPP-IV (dipeptidyl peptidase-IV) (Homo sapiens, UniProt P27487)
T1 construct: gene DPP4; commercial recombinant human DPP-IV
Experiment: fluorimetric DPP-IV inhibition assay (H-Gly-Pro-AMC), dose-response
Assay type: biochemical

T1 sequence (P27487 39-766): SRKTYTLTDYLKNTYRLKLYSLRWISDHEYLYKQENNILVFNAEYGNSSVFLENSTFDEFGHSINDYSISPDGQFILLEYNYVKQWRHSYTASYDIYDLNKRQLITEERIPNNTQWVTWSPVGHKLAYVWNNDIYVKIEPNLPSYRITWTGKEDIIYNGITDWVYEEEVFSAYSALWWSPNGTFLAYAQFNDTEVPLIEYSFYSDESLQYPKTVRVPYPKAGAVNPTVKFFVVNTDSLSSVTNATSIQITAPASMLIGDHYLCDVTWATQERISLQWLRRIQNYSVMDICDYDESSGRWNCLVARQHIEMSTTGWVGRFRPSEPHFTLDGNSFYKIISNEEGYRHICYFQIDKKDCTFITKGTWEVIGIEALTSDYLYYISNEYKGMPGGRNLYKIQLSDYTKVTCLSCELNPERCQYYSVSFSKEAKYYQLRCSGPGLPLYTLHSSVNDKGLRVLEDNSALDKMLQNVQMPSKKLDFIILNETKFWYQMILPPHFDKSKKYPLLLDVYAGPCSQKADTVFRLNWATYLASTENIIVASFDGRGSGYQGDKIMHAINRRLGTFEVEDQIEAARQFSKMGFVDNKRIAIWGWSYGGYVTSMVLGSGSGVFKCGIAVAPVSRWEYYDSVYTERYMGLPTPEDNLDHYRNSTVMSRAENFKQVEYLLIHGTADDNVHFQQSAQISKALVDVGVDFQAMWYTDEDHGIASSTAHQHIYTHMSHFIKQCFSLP

CCCCN(C)Cc1c(O)ccc2c(-c3cc4ccccc4oc3=O)cc(=O)oc12 [C5, ZINC02132035]
IC50: 61.6 µM
